Data on 15 molecules can be found in US11820773B2, “Tricyclic compounds” (ALIGOS THERAPEUTICS, INC., priority 2020, dated 2023).

In this assay the test system is HBV. The assay is described as follows: HBV-DNA antiviral assay using HepG2.117 cells (intracellular HBV DNA by qPCR). In kind it is cell-based, genotype D HBV. As to conditions: HBV DNA inhibition, 3 days incubation, 2% DMSO. An outline of the steps:
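HepG2.117 cells (stable genotype D HBV, Tet-off) seeded without doxycycline, treated next day with 9-point 4-fold dilutions in 2% DMSO for 3 days at 37° C. Intracellular HBV DNA quantified by qPCR against a standard curve; viability by CellTiter-Glo ATP. EC50, EC90, CC50 from variable-slope dose-response fits versus DMSO control.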
Background: Quantitative PCR measures a nucleic acid by following its amplification.

pEC50: −log10 of the molar value.

For the setting “Hepatitis B virus, 72 h”, `Cc1nn[nH]c1-c1ccc(-n2c(=O)c3c(n4ncc(CC(C)C)c24)CN(C(=O)c2ccc(Br)c(Cl)c2)[C@@H](C)C3)cc1` (stereo in doubt) [Compound 64b, rac-(11S)-12-(4-bromo-3-chloro-benzoyl)-5-isobutyl-11-methyl-7-[4-(4-methyl-1H-triazol-5-yl)phenyl]-2,3,7,12-tetrazatricyclo[7.4.0.0^2,6]trideca-1(9),3,5-trien-8-one] showed a pEC50 of 6.30 to 7.30. With `CC(C)Cc1cnn2c3c(c(=O)n(-c4ccc(-c5nncn5C)cc4)c12)C[C@@H](C)N(C(=O)c1ccc(Br)c(Cl)c1)C3` (stereo in doubt) [Compound 68a, rac-(11R)-12-(4-bromo-3-chloro-benzoyl)-5-isobutyl-11-methyl-7-[4-(4-methyl-1,2,4-triazol-3-yl)phenyl]-2,3,7,12-tetrazatricyclo[7.4.0.0^2,6]trideca-1(9),3,5-trien-8-one], for the setting “Hepatitis B virus, 72 h”, the pEC50 is over 7.30. Still for that read-out and setting: in the case of `CNC(=O)c1ccc(-n2c(=O)c3c(n4ncc(Cc5ccsc5)c24)CN(C(=O)c2ccc(Br)c(C(F)(F)F)c2)CC3)cc1` [Compound 20, 4-[12-[4-bromo-3-(trifluoromethyl)benzoyl]-8-oxo-5-(3-thienylmethyl)-2,3,7,12-tetrazatricyclo[7.4.0.0^2,6]trideca-1(9),3,5-trien-7-yl]-N-methyl-benzamide] it was over 7.30; in that of `C[C@@H]1Cc2c(n3ncc(Cc4ccccc4)c3n(-c3ccc(-c4noc(=O)n4C)cc3)c2=O)CN1C(=O)c1ccc(Br)c(C(F)(F)F)c1` (stereo in doubt) [Compound 41a, 4-methyl-3-[4-[rac-(11R)-5-benzyl-12-[4-bromo-3-(trifluoromethyl)benzoyl]-11-methyl-8-oxo-2,3,7,12-tetrazatricyclo[7.4.0.0^2,6]trideca-1(9),3,5-trien-7-yl]phenyl]-1,2,4-oxadiazol-5-one], over 7.30. The molecule `CC(C)Cc1cnn2c3c(c(=O)n(-c4ccc5c(c4)nnn5CCO)c12)C[C@H](C)N(C(=O)c1ccc(Br)c(C(F)(F)F)c1)C3` (stereo in doubt) [Compound 108b, rac-(11S)-12-[4-bromo-3-(trifluoromethyl)benzoyl]-7-[1-(2-hydroxyethyl)benzotriazol-5-yl]-5-isobutyl-11-methyl-2,3,7,12-tetrazatricyclo[7.4.0.0^2,6]trideca-1(9),3,5-trien-8-one] gave a pEC50 (Hepatitis B virus, 72 h) of 6.30 to 7.30. For the setting “Hepatitis B virus, 72 h”, `CCC[C@@H]1Cc2c(n3ncc(Cc4ccccc4)c3n(-c3ccc4c(NC)n[nH]c4c3)c2=O)CN1C(=O)c1ccc(Br)c(C(F)(F)F)c1` (stereo in doubt) [Compound 88a, rac-(11R)-5-benzyl-12-[4-bromo-3-(trifluoromethyl)benzoyl]-7-[3-(methylamino)-1H-indazol-6-yl]-11-propyl-2,3,7,12-tetrazatricyclo[7.4.0.0^2,6]trideca-1(9),3,5-trien-8-one] had a pEC50 of over 7.30.

Consider `CNC(=O)c1ccc(-n2c(=O)c3c(n4ncc(CC5CCC5)c24)CN(C(=O)c2ccc(Br)c(Cl)c2)CC3)cc1` [Compound 14, 4-[12-(4-bromo-3-chloro-benzoyl)-5-(cyclobutylmethyl)-8-oxo-2,3,7,12-tetrazatricyclo[7.4.0.0^2,6]trideca-1(9),3,5-trien-7-yl]-N-methyl-benzamide], for which, where the note is “Hepatitis B virus, 72 h”, the pEC50 is over 7.30. On the same count and under the same terms, the same measure for `CC(C)Cc1cnn2c3c(c(=O)n(-c4ccc5c(c4)nnn5CCO)c12)C[C@@H](C)N(C(=O)c1ccc(Br)c(C(F)(F)F)c1)C3` (stereo in doubt) [Compound 108a, rac-(11R)-12-[4-bromo-3-(trifluoromethyl)benzoyl]-7-[1-(2-hydroxyethyl)benzotriazol-5-yl]-5-isobutyl-11-methyl-2,3,7,12-tetrazatricyclo[7.4.0.0^2,6]trideca-1(9),3,5-trien-8-one]: over 7.30; for `Cc1nn[nH]c1-c1ccc(-n2c(=O)c3c(n4ncc(CC(C)C)c24)CN(C(=O)c2ccc(Br)c(C(F)(F)F)c2)[C@H](C)C3)cc1` (stereo in doubt) [Compound 62a, rac-(11R)-12-[4-bromo-3-(trifluoromethyl)benzoyl]-5-isobutyl-11-methyl-7-[4-(4-methyl-1H-triazol-5-yl)phenyl]-2,3,7,12-tetrazatricyclo[7.4.0.0^2,6]trideca-1(9),3,5-trien-8-one]: over 7.30.

Regarding `CNc1onc2cc(-n3c(=O)c4c(n5ncc(Cc6ccccc6)c35)CN(C(=O)c3ccc(Br)c(Cl)c3)CC4)ccc12` [Compound 6, 5-benzyl-12-(4-bromo-3-chloro-benzoyl)-7-[3-(methylamino)-2,1-benzoxazol-6-yl]-2,3,7,12-tetrazatricyclo[7.4.0.0^2,6]trideca-1(9),3,5-trien-8-one], the pEC50 is over 7.30.

In turn, `CNC(=O)c1ccc(-n2c(=O)c3c(n4ncc(CC5CC5)c24)CN(C(=O)c2ccc(Br)c(C(F)(F)F)c2)C(C)C3)cc1` (racemic) [Compound 21a, N-methyl-4-[rac-(11R)-12-[4-bromo-3-(trifluoromethyl)benzoyl]-5-(cyclopropylmethyl)-11-methyl-8-oxo-2,3,7,12-tetrazatricyclo[7.4.0.0^2,6]trideca-1(9),3,5-trien-7-yl]benzamide] gave a pEC50 of over 7.30.

With `Cc1nnc(-c2ccc(-n3c(=O)c4c(n5ncc(CC(C)C)c35)CN(C(=O)c3ccc(Cl)c(C(F)(F)F)c3)[C@@H](C)C4)cc2)[nH]1` (stereo in doubt) [Compound 65b, rac-(11S)-12-[4-chloro-3-(trifluoromethyl)benzoyl]-5-isobutyl-11-methyl-7-[4-(5-methyl-4H-1,2,4-triazol-3-yl)phenyl]-2,3,7,12-tetrazatricyclo[7.4.0.0^2,6]trideca-1(9),3,5-trien-8-one], where the note is “Hepatitis B virus, 72 h”, the negative-log EC50 (pEC50) was 5.30 to 6.30. `CNc1n[nH]c2cc(-n3c(=O)c4c(n5ncc(Cc6ccccc6)c35)CN(C(=O)c3ccc(Br)c(C(F)(F)F)c3)[C@@H](C)C4)ccc12` (stereo in doubt) [Compound 43b, rac-(11S)-5-benzyl-12-[4-bromo-3-(trifluoromethyl)benzoyl]-11-methyl-7-[3-(methylamino)-1H-indazol-6-yl]-2,3,7,12-tetrazatricyclo[7.4.0.0^2,6]trideca-1(9),3,5-trien-8-one] showed a pEC50 (Hepatitis B virus, 72 h) of over 7.30. The same measure, in the same setting: in the case of `CC[C@H]1Cc2c(n3ncc(Cc4ccccc4)c3n(-c3ccc4c(NC)n[nH]c4c3)c2=O)CN1C(=O)c1ccc(Br)c(C(F)(F)F)c1` (stereo in doubt) [Compound 84b, rac-(11S)-5-benzyl-12-[4-bromo-3-(trifluoromethyl)benzoyl]-11-ethyl-7-[3-(methylamino)-1H-indazol-6-yl]-2,3,7,12-tetrazatricyclo[7.4.0.0^2,6]trideca-1(9),3,5-trien-8-one] it was over 7.30.

In turn, `CC(C)Cc1cnn2c3c(c(=O)n(-c4ccc(-c5nncn5C)cc4)c12)C[C@H](C)N(C(=O)c1ccc(Br)c(Cl)c1)C3` [Compound 60b, (11S)-12-(4-bromo-3-chlorobenzoyl)-11-methyl-7-[4-(4-methyl-1,2,4-triazol-3-yl)phenyl]-5-(2-methylpropyl)-2,3,7,12-tetraazatricyclo[7.4.0.0^{2,6}]trideca-1(9),3,5-trien-8-one] gave a pEC50 of 6.30 to 7.30.

As usually defined, the pEC50 is the negative decadic logarithm of the EC50, by convention in mol/L. Read a high pEC50 as a low EC50.
